This is an account of results in US6528491B2, “Pyranoside derivatives” (Boehringer Ingelheim Pharma KG, priority 2000, dated 2003).

For this assay, the target named is LTB4 receptor (Homo sapiens, UniProt Q15722). In words: receptor binding test. From the text: The activity can be investigated pharmacologically and biochemically using tests as disclosed for example in WO 93/16036, pp. 15 to 17; reference is hereby made to the contents of this publication.

As usually defined, the Ki is a dissociation constant, usually derived from enzyme kinetics or from competition with a known ligand.

Chain of LTB4 receptor (Q15722 whole entry): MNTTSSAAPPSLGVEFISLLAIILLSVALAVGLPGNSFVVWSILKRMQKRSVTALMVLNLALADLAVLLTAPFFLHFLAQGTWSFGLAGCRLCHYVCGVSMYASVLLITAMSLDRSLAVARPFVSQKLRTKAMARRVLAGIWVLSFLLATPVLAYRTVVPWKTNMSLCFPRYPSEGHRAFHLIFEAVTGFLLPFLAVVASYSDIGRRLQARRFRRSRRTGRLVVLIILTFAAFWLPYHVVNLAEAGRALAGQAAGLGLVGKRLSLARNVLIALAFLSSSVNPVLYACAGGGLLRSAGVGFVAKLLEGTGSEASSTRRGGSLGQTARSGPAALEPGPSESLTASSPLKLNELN

In turn, `CCCc1cc(-c2ccc(C(=N)N)cc2)ccc1OCCOc1cccc(O[C@@H]2O[C@H](C(=O)O)[C@@H](O)[C@H](O)[C@H]2O)c1` [Example 1, 3′-n-propyl-4′-[2-(3-hydroxyphenoxy)-ethoxy]-1,1′-biphenyl-4-carboximidamide-O-β-D-glucuronide] showed a Ki of 3.6 nM.
